The values that follow come from patent US10322118B2, “Compounds and methods for inhibiting Cif virulence factor” (priority 2012, dated 2019).

Assay [1] concerns the target T1, Cif (Pseudomonas aeruginosa (strain UCBPP-PA14), UniProt A0A0H2ZD27). The experiment in a line: Primary high throughput screen with fluorogenic substrate CMNGC.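 Note: fluorescence of 200 µL reactions in 96-well plates read on a plate reader, inhibitor at tenfold molar excess over Cif enzyme.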 It is filed as biochemical. The conditions noted are these: primary screen; test compounds at 10 μM, 1 μM Cif, 25 μM CMNGC, 60 minutes.
Experimental: All high throughput screening assays were performed using 96-well plates, a 200 μL reaction volume, and a fluorescent plate reader. […] The fluorescent signal was measured after allowing the enzyme reaction to proceed for 60 minutes.
A library of 1600 FDA-approved compounds was screened for Cif inhibitory activity.
The screen was performed with only a 10-fold stoichiometric excess of inhibitor over Cif enzyme.
In assay [2] the target is T1, Cif. As to the kind of experiment: Secondary screen (sextuplicate) with fluorogenic substrate CMNGC.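 For all read-outs here: purified enzyme assay in 96-well plates, 200 µL volume, fluorescence recorded each minute across a 60 min reaction.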 It is filed as biochemical. The conditions noted are these: for % Inhibition, Mean ± SD / % Inhibition, plate 1 / % Inhibition, plate 2 / % Inhibition, plate 3 / % Inhibition, plate 4 / % Inhibition, plate 5 / % Inhibition, plate 6: secondary screen, 10 μM; for % Inhibition, Mean ± SD: mean of six plates; for % Inhibition, plate 1: plate number 1; for % Inhibition, plate 2: plate number 2; for % Inhibition, plate 3: plate number 3; for % Inhibition, plate 4: plate number 4; for % Inhibition, plate 5: plate number 5; for % Inhibition, plate 6: plate number 6.
Experimental: All high throughput screening assays were performed using 96-well plates, a 200 μL reaction volume, and a fluorescent plate reader. […] The fluorescent signal was measured after allowing the enzyme reaction to proceed for 60 minutes. The secondary screen was performed using the same conditions as the primary screen, except that fluorescent readings were taken every minute for the 60-minute reaction.
Subsequently, the filtered primary hits were retested to validate the observed inhibitory effect.

Where [3] appears, read: read-out: % Inhibition, Mean ± SD.
Where [4] appears, read: read-out: % Inhibition, plate 1.
[5] abbreviates: read-out: % Inhibition, plate 2.
Setting [6] is: read-out: % Inhibition, plate 3.
Setting [7] is: read-out: % Inhibition, plate 4.
[8] abbreviates: read-out: % Inhibition, plate 5.
[9] abbreviates: read-out: % Inhibition, plate 6.

Where a name gives a salt, the structure may show the parent alone.

T1 sequence (A0A0H2ZD27 25-319 limits assumed): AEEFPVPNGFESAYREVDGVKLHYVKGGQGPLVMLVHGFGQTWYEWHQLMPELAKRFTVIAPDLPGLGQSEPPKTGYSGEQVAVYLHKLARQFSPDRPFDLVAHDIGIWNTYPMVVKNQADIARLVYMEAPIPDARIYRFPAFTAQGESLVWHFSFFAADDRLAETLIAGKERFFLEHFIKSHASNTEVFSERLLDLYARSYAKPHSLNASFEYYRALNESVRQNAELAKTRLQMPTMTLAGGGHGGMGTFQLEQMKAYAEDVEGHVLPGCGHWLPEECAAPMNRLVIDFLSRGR

Consider `C[C@@H]1C[C@H]2[C@@H]3CCC4=CC(=O)C=C[C@]4(C)[C@@]3(F)[C@@H](O)C[C@]2(C)[C@H]1C(=O)CO` [Desoxymetasone], for which, in assay [1], the % Inhibition (usually the percentage by which the read-out fell short of the control) is on record as 66%. In assay [2], the “% Inhibition, Mean ± SD” value stood at 39 ± 4%; the “% Inhibition, plate 1” value was found to be 34%; the “% Inhibition, plate 2” value was found to be 42%; the “% Inhibition, plate 3” value worked out at 34%. Moreover, in assay [2], the “% Inhibition, plate 4” value is on record as 40%; the “% Inhibition, plate 5” value is listed as 42%; the “% Inhibition, plate 6” value is 41%.

Turning to `CN(C)CCCN1c2ccccc2CCc2ccc(Cl)cc21` [Clomipramine hydrochloride], the inhibition (as a rule, the relative decrease from the control value, in per cent) at 10 µM in assay [1] is 51%; in assay [2] (setting [3]), 5 ± 4%; in assay [2] (setting [4]), 0%; in assay [2] (setting [5]), 3%; in assay [2] (setting [6]), 9%; in assay [2] (setting [7]) it was 3%. Besides, the inhibition at 10 µM in assay [2] (setting [8]) came out at 9%; in assay [2] (setting [9]) it was 7%.

Take `O=C(CCCCCCC(=O)Nc1ccccc1)NO` [Vorinostat]: the inhibition at 10 µM in assay [1] worked out at 35%; in assay [2] (setting [3]), 13 ± 6%; in assay [2] (setting [4]) it was 5%; in assay [2] (setting [5]), 13%; in assay [2] (setting [6]) it was 8%; in assay [2] (setting [7]), 14%. Moreover, the inhibition at 10 µM is 18% in assay [2] (setting [8]) and 22% in assay [2] (setting [9]).

With `Cc1nccnc1N1CCCCC1` [Modaline sulfate], the inhibition at 10 µM is 34% in assay [1]; 12 ± 3% in assay [2] (setting [3]); 10% in assay [2] (setting [4]); 7% in assay [2] (setting [5]); 12% in assay [2] (setting [6]); 12% in assay [2] (setting [7]). Also, the inhibition at 10 µM in assay [2] (setting [8]) was 13%; in assay [2] (setting [9]), 17%.

For the compound `C=C(NC(=O)C(=C)NC(=O)c1csc(C2=N[C@@H]3c4csc(n4)[C@H]4NC(=O)c5csc(n5)[C@H]([C@](C)(O)[C@@H](C)O)NC(=O)[C@H]5CSC(=N5)/C(=C/C)NC(=O)[C@H]([C@@H](C)O)NC(=O)c5csc(n5)[C@]3(CC2)NC(=O)[C@H](C)NC(=O)C(=C)NC(=O)[C@H](C)NC(=O)[C@H]([C@@H](C)CC)N[C@@H]2C=Cc3c([C@H](C)O)cc(nc3[C@H]2O)C(=O)O[C@@H]4C)n1)C(N)=O` [Thiostrepton], the inhibition at 10 µM was 46% in assay [1]; 28 ± 12% in assay [2] (setting [3]); 14% in assay [2] (setting [4]); 15% in assay [2] (setting [5]); 25% in assay [2] (setting [6]); 27% in assay [2] (setting [7]). For the same compound, the values for the inhibition at 10 µM in assay [2] (setting [8]) and in assay [2] (setting [9]) were 43% and 42%, respectively.

For the compound `C=CCc1ccc(O)c(OC)c1` [Eugenol], the inhibition at 10 µM in assay [1] is 32%; in assay [2] (setting [3]) it was 3 ± 4%; in assay [2] (setting [4]), 4%; in assay [2] (setting [5]), 0%; in assay [2] (setting [6]), 7%; in assay [2] (setting [7]), 4%. Moreover, the inhibition at 10 µM was 6% in assay [2] (setting [8]) and -4% in assay [2] (setting [9]).

On to `O=C1CC2(CCCC2)CC(=O)N1CCCCN1CCN(c2ncccn2)CC1` [Buspirone hydrochloride], for which the inhibition at 10 µM in assay [1] is 33%; in assay [2] (setting [3]), -3 ± 4%; in assay [2] (setting [4]), 0%; in assay [2] (setting [5]), -3%; in assay [2] (setting [6]), 0%; in assay [2] (setting [7]), -1%. Also, the values for the inhibition at 10 µM in assay [2] (setting [8]) and in assay [2] (setting [9]) were -2% and -11%, respectively.

For the compound `CC(=O)[C@H]1CC[C@H]2[C@@H]3CC=C4C[C@@H](OC(=O)CCC(=O)O)CC[C@]4(C)[C@H]3CC[C@]12C` [Pregnenolone succinate], the “% Inhibition” value in assay [1] is 34%. Besides, in assay [2], the “% Inhibition, Mean ± SD” value is reported as 12 ± 4%; the “% Inhibition, plate 1” value was 6%; the “% Inhibition, plate 2” value is recorded as 12%; the “% Inhibition, plate 3” value was 8%. Moreover, in assay [2], the “% Inhibition, plate 4” value is given as 13%; the “% Inhibition, plate 5” value was found to be 17%; the “% Inhibition, plate 6” value is reported as 15%.

In the case of `C[C@]12CC[C@@H]3c4ccc(O)cc4CC[C@H]3[C@@H]1CC[C@@H]2O` [Estradiol], the inhibition at 10 µM in assay [1] amounted to 39%; in assay [2] (setting [3]), 4 ± 5%; in assay [2] (setting [4]), 4%; in assay [2] (setting [5]) it was 5%; in assay [2] (setting [6]), 5%; in assay [2] (setting [7]), 6%. For the same compound, the inhibition at 10 µM in assay [2] (setting [8]) is 8%; in assay [2] (setting [9]), -6%.

As to `N#C[C@@H]1C[C@@H]2C[C@@H]2N1C(=O)[C@@H](N)C12CC3CC(CC(O)(C3)C1)C2` [Saxagliptin], the inhibition at 10 µM in assay [1] came out at 35%; in assay [2] (setting [3]) it was 5 ± 4%; in assay [2] (setting [4]), 5%; in assay [2] (setting [5]) it was 0%; in assay [2] (setting [6]), 6%; in assay [2] (setting [7]) it was 6%. The inhibition at 10 µM is 11% in assay [2] (setting [8]) and 3% in assay [2] (setting [9]).

Turning to `Cc1c(Nc2ncccc2C(=O)O)cccc1C(F)(F)F` [Flunixin meglumine], the inhibition at 10 µM was 32% in assay [1]; 14 ± 5% in assay [2] (setting [3]); 13% in assay [2] (setting [4]); 15% in assay [2] (setting [5]); 14% in assay [2] (setting [6]); 18% in assay [2] (setting [7]). For the same compound, the inhibition at 10 µM in assay [2] (setting [8]) came to 19%; in assay [2] (setting [9]) it was 4%.

Regarding Candicidin, in assay [1], the “% Inhibition” value amounted to 41%. Moreover, in assay [2], the “% Inhibition, Mean ± SD” value came to 15 ± 7%; the “% Inhibition, plate 1” value is 3%; the “% Inhibition, plate 2” value amounted to 13%; the “% Inhibition, plate 3” value was 17%. Also, in assay [2], the “% Inhibition, plate 4” value is given as 19%; the “% Inhibition, plate 5” value worked out at 23%; the “% Inhibition, plate 6” value was 18%.

As for `CC(O)CN1CCN(CC(=O)[O-])CCN(CC(=O)[O-])CCN(CC(=O)[O-])CC1.[Gd+3]` (stereo not shown) [Gadoteridol], the “% Inhibition” value in assay [1] was determined as 34%. For the same compound, in assay [2], the “% Inhibition, Mean ± SD” value was 11 ± 5%; the “% Inhibition, plate 1” value came out at 7%; the “% Inhibition, plate 2” value is 3%; the “% Inhibition, plate 3” value amounted to 10%. For the same compound, in assay [2], the “% Inhibition, plate 4” value was 13%; the “% Inhibition, plate 5” value is given as 16%; the “% Inhibition, plate 6” value is reported as 15%.

Turning to `CCCCCCCCCCCCCCOS(=O)(=O)O` [Sodium tetradecyl sulfate], the inhibition at 10 µM in assay [1] was found to be 78%; in assay [2] (setting [3]), 9 ± 4%; in assay [2] (setting [4]) it was 9%; in assay [2] (setting [5]), 4%; in assay [2] (setting [6]), 12%; in assay [2] (setting [7]), 12%. Besides, the inhibition at 10 µM in assay [2] (setting [8]) was found to be 13%; in assay [2] (setting [9]), 5%.

Consider `CC(=O)[C@@]1(O)CC[C@H]2[C@@H]3C[C@H](C)C4=CC(=O)C=C[C@]4(C)[C@@]3(F)[C@@H](O)C[C@@]21C` [Fluorometholone], for which the inhibition at 10 µM in assay [1] was 31%; in assay [2] (setting [3]) it was 18 ± 2%; in assay [2] (setting [4]), 18%; in assay [2] (setting [5]) it was 15%; in assay [2] (setting [6]), 19%; in assay [2] (setting [7]) it was 16%. The inhibition at 10 µM was 21% in assay [2] (setting [8]) and 16% in assay [2] (setting [9]).

Turning to `CN1CCCC(n2nc(Cc3ccc(Cl)cc3)c3ccccc3c2=O)CC1` (stereo not shown) [Azelastine hydrochloride], the inhibition at 10 µM in assay [1] amounted to 48%; in assay [2] (setting [3]) it was 34 ± 4%; in assay [2] (setting [4]), 30%; in assay [2] (setting [5]), 31%; in assay [2] (setting [6]), 33%; in assay [2] (setting [7]), 34%. For the same compound, the results for the inhibition at 10 µM in assay [2] (setting [8]) and in assay [2] (setting [9]) were 42% and 30%, respectively.

Consider `CC1=NN(c2ccccc2)C(=O)C1` [Edaravone], for which the inhibition at 10 µM in assay [1] amounted to 43%; in assay [2] (setting [3]) it was 16 ± 7%; in assay [2] (setting [4]) it was 21%; in assay [2] (setting [5]), 13%; in assay [2] (setting [6]), 13%; in assay [2] (setting [7]) it was 26%. Besides, the inhibition at 10 µM in assay [2] (setting [8]) was 19%; in assay [2] (setting [9]) it was 6%.

As to `CC(=O)[C@@]12O[C@](C)(c3ccccc3)O[C@@H]1C[C@H]1[C@@H]3CCC4=CC(=O)CC[C@]4(C)[C@H]3CC[C@@]12C` [Algestone acetophenide], the “% Inhibition” value in assay [1] was found to be 38%. In assay [2], the “% Inhibition, Mean ± SD” value is given as −3 ± 5%; the “% Inhibition, plate 1” value is −5%; the “% Inhibition, plate 2” value is reported as −2%; the “% Inhibition, plate 3” value came to 0%. In assay [2], the “% Inhibition, plate 4” value is recorded as −2%; the “% Inhibition, plate 5” value came to 3%; the “% Inhibition, plate 6” value was −10%.

As for `Nc1nc2c(ncn2CCC(CO)CO)c(=O)[nH]1` [Penciclovir], the inhibition at 10 µM in assay [1] is 45%; in assay [2] (setting [3]), 0%; in assay [2] (setting [4]) it was -11%; in assay [2] (setting [5]), 1%; in assay [2] (setting [6]) it was 2%; in assay [2] (setting [7]) it was 3%. Moreover, the figures for the inhibition at 10 µM in assay [2] (setting [8]) and in assay [2] (setting [9]) were 7% and -3%, respectively.

Take `CCCCCCCCCCCCCCCC[N+](C)(C)C.[Br-]` [Cetrimonium bromide]: in assay [1], the “% Inhibition” value was 44%. In addition, in assay [2], the “% Inhibition, Mean ± SD” value came out at 2 ± 4%; the “% Inhibition, plate 1” value was determined as 1%; the “% Inhibition, plate 2” value is reported as −1%; the “% Inhibition, plate 3” value is reported as −4%. Besides, in assay [2], the “% Inhibition, plate 4” value worked out at 3%; the “% Inhibition, plate 5” value was 8%; the “% Inhibition, plate 6” value is 2%.
